{
  "source": "patent US20140206748A1",
  "about": "“COMPOSITIONS AND METHODS RELATED TO PROSTATE CANCER” (Regents of the University of Minnesota, priority 2013, published 2014)",
  "key": {"[1]": {"system": "LNCaP cells", "conditions": "0.1 nM DHT to 100 nM DHT"}, "[2]": {"system": "LNCaP cells", "protocol": "Normalized gene expression data was ranked using the Signal2Noise metric and GSEA was performed against 1000 random gene set permutations."}, "[3]": {"system": "22Rv1 cells", "test": "Growth of 22Rv1 cells under castrate conditions (crystal violet staining)", "type": "cell-based, human", "conditions": "CSS; 10 μM bicalutamide or 1 μM enzalutamide"}, "[4]": {"system": "CWR-R1 cells", "conditions": "castrate conditions; 10 μM bicalutamide or 1 μM enzalutamide"}, "[5]": {"system": "castration-resistant prostate cancer patients", "conditions": "Phase III trials; cited from earlier work"}, "[6]": {"system": "androgen receptor (AR)", "test": "MMTV-Luc reporter assay in CWR-R1 early and CWR-R1 late cells", "type": "cell-based, human", "conditions": "1 nM mibolerone, 24 hours; CWR-R1 early vs CWR-R1 late cells"}},
  "note": "Where two headings read alike, the source gives them in different places.",
  "data": [
    {"smiles": "C[C@]12CCC(=O)C[C@@H]1CC[C@@H]1[C@@H]2CC[C@]2(C)[C@@H](O)CC[C@@H]12", "note": "[DHT, dihydrotestosterone]", "values": [
      {"measurement": "PSA expression", "setting": "[1]", "result": "increased concomitant with increasing androgen concentration"},
      {"measurement": "expression of M-phase genes UBE2C, CDCA5, ZWINT, and CCNA2", "setting": "[1]", "result": "biphasic response"},
      {"measurement": "enrichment of the \"full-length AR\" signature (GSEA)", "setting": "[2]; 1 nM DHT and 100 nM DHT datasets", "result": "positive enrichment"},
      {"measurement": "enrichment of the \"AR-V-specific\" signature (GSEA)", "setting": "[2]; 1 nM DHT dataset (GSE26483)", "result": "positive enrichment"},
      {"measurement": "enrichment of the \"AR-V-specific\" signature (GSEA)", "setting": "[2]; 100 nM DHT dataset (GSE7868)", "result": "strong negative enrichment"}
    ]},
    {"smiles": "CNC(=O)c1ccc(N2C(=S)N(c3ccc(C#N)c(C(F)(F)F)c3)C(=O)C2(C)C)cc1F", "note": "[enzalutamide]", "values": [
      {"measurement": "growth of 22Rv1 cells under castrate conditions", "setting": "[3]", "result": "unaffected"},
      {"measurement": "androgen-independent growth of deletion-enriched CWR-R1 cells", "setting": "[4]", "result": "insensitive"},
      {"measurement": "increase of overall survival", "setting": "[5]", "result": 4.8, "unit": "months"}
    ]},
    {"smiles": "C[C@@H]1CC2=CC(=O)CC[C@@H]2[C@H]2CC[C@@]3(C)[C@@H](CC[C@]3(C)O)[C@@H]21", "note": "[mibolerone]", "values": [
      {"measurement": "AR transactivation (MMTV-Luc) in response to androgen", "setting": "[6]", "result": "higher in CWR-R1 early cells than CWR-R1 late cells"}
    ]}
  ]
}
